Test results from article doi:10.1101/2025.02.20.639278v1, “Discovery of inhibitors for bacterial Arr enzymes ADP-ribosylating and inactivating rifamycin antibiotics” (biorxiv, 2025).

Key:
PaArr [1] = target: T1, PaArr (Pseudomonas aeruginosa, UniProt O87490); assay: X-ray crystal structure, […] Å; assay type: binding; settings: crystal with 1 mM rifampicin; an additional rifampicin molecule at crystal contacts, likely artifact
T1 construct: gene arr-2; class 1 integron gene; codon-optimized; His6-MBP tag cut off with TEV; E. coli BL21(DE3); monomer

SmArr = system: T2, SmArr; assay: fluorescent NAD+ conversion assay; assay type: biochemical, Stenotrophomonas maltophilia; settings: 1 µM NAD+, 2 µM rifampicin, 50 mM PIPES pH 7.5, 0.01% Triton X-100, room temperature
T2 construct: gene arr; class 1 integron gene; codon-optimized; His6-MBP tag cut off with TEV; E. coli BL21(DE3)

PaArr [2] = target: T1, PaArr; assay: fluorescent NAD+ conversion assay; assay type: biochemical
MsArr = target: T3, MsArr (Mycolicibacterium smegmatis, UniProt A0QRS5, V47I/Y72F); assay: fluorescent NAD+ conversion assay; assay type: biochemical
T3 construct: gene MSMEG_1221; V47I Y72F variant gene; His6-MBP tag cut off with TEV; E. coli BL21(DE3)

MaArr [3] = target: T4, MaArr (Mycobacteroides abscessus, UniProt B1MH05); assay: fluorescent NAD+ conversion assay; assay type: biochemical
T4 construct: gene MAB_0591; chromosomal gene; codon-optimized; His6-MBP tag cut off with TEV; E. coli BL21(DE3)

PaArr [4] = target: T1, PaArr; assay: fluorescent NAD+ conversion assay; assay type: biochemical; remark: listed apart in the source
MaArr [5] = target: T4, MaArr; assay: fluorescent NAD+ conversion assay; assay type: biochemical; remark: listed apart in the source
PARP2 = PARP2 (Homo sapiens, UniProt Q9UGN5); assay: human ADP-ribosyltransferase activity panel; assay type: biochemical
TNKS2 = target: T5, TNKS2 (Homo sapiens, UniProt Q9H2K2); assay: human ADP-ribosyltransferase activity panel; assay type: biochemical
T5 sequence (Q9H2K2 1-1166): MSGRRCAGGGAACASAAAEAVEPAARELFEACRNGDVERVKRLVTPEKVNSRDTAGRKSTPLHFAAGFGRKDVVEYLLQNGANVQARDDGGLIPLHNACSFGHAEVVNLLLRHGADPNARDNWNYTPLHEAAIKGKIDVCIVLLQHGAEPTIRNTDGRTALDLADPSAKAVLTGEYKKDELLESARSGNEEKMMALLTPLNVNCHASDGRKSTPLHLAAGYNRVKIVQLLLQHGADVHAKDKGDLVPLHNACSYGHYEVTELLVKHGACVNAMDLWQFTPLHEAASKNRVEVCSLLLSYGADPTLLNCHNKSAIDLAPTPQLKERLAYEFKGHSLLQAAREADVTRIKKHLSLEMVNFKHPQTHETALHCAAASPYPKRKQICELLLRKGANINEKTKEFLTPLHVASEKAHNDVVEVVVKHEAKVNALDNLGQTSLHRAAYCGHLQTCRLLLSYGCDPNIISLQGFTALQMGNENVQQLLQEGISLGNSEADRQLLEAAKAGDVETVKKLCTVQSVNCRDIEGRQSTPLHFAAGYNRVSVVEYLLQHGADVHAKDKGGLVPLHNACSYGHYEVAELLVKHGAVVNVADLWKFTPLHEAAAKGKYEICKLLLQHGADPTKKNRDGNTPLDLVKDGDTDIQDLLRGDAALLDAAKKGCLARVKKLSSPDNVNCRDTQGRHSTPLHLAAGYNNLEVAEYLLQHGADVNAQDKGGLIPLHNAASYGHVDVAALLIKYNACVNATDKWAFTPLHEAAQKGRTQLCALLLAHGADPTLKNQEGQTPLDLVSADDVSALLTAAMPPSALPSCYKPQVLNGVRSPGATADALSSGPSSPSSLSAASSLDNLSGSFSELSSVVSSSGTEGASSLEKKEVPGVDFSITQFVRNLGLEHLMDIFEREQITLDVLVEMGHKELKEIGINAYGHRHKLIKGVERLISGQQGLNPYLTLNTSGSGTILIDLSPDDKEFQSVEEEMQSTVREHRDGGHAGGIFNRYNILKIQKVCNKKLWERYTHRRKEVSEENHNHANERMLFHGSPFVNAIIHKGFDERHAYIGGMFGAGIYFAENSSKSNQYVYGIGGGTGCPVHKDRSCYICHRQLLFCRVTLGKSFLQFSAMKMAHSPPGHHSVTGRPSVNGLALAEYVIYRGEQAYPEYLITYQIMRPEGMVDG

Row | Compound | IC50 (SmArr) [nM] | IC50 (MsArr) [nM] | IC50 (PaArr [4]) [nM] | other results
1 | CO[C@H]1/C=C/O[C@@]2(C)Oc3c(C)c(O)c4c(O)c(c(/C=N/N5CCN(C)CC5)c(O)c4c3C2=O)NC(=O)/C(C)=C\C=C\[C@H](C)[C@H](O)[C@@H](C)[C@@H](O)[C@@H](C)[C@H](OC(C)=O)[C@@H]1C [rifampicin] |  |  |  | X-ray crystal structure, 1.4 Å (PaArr [1]): In the crystal structure of PaArr, an additional rifampicin molecule stacks against these two areas
2 | Oc1ccc(O)c2c1sc1nncn12 [compound 13, 13] | 1200 |  |  | 
3 | Nc1nc2ccc(Cl)cc2c(O)c1-c1ccccc1 [compound 1] |  | 1300 |  | inhibition at 100 µM (PaArr [2]): < 50%; inhibition at 100 µM (MaArr [3]): < 50%
4 | O=c1c(O)c(-c2cc(O)c(O)c(O)c2)oc2cc(O)cc(O)c12 [compound 7] | 1700 |  | 470 | 
5 | NS(=O)(=O)c1ccc(-c2nc3ccccc3c(=O)[nH]2)cc1 [compound 2] | 10000 to 100000 | 2000 | 10000 to 100000 | IC50 (MaArr [5]): 10000 to 100000 nM; IC50 (PARP2): showed strong inhibition of TNKS2 and PARP2 as expected (Figure 3E); IC50 (TNKS2): showed strong inhibition of TNKS2 and PARP2 as expected (Figure 3E)
